Target: BTK (Homo sapiens, UniProt Q06187)
Experiment: biochemical
Details: read-out: BTK inhibition (%)

Chain of BTK (Q06187 402-655 limits assumed): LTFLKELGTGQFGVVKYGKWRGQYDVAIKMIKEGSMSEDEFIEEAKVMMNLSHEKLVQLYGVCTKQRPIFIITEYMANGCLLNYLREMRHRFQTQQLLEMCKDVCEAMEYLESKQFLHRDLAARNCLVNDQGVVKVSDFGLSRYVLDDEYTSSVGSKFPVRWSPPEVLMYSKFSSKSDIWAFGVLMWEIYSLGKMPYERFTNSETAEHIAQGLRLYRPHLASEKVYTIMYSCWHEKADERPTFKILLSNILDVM

Compared with `Cc1ccccc1-n1c(CF)nc2ccc(N)cc2c1=O` [PCM-0214908], `C[C@]12N[C@H](Cc3ccccc31)c1ccccc12` [PCM-0064989] is higher in inhibition at 10 µM: 2.3% for the first, 3.9% for the second.

First: COc1cc(C)[nH]c(=O)c1CNC(=O)c1c(C)n([C@H](C)C2CCOCC2)c2ccccc12 [PCM-0214591]
Second: CC(=O)Nc1ccc(OC[C@](C)(O)C(=O)Nc2ccc([N+](=O)[O-])c(C(F)(F)F)c2)cc1 [PCM-0094957]
The inhibition at 10 µM of the first is lower: -24.7% for the first, -1.4% for the second.

Same assay, conditions: read-out: BTK inhibition (%), 0.75 uM BTK, […] probe 3l, 15 min preincubation

Going from `CCCCCCCCCCC[C@@H](C[C@@H]1OC(=O)[C@H]1CCCCCC)OC(=O)[C@H](CC(C)C)NC=O` [PCM-0095181] to `CCCCCCCCCCCCCCCCCCCC(=O)O` [PCM-0216199], the inhibition at 10 µM rises from -13.2% to 9.3%.

Compared with `CCCCCC1C(=O)CCC1CC(=O)OCCC` (centres unmarked) [PCM-0216258], `CCN(CC)C(=O)[C@]1(c2ccccc2)C[C@@H]1CN` [PCM-0095594] is higher in inhibition at 10 µM: -0.8% for the first, 0.8% for the second.

First: C/C=C/c1cc(OC)c2c(c1)C(C)C(c1ccc(O)c(OC)c1)O2 (centres unmarked) [PCM-0216391]
Second: COc1cc(C(C)=O)ccc1O [PCM-0094831]
The inhibition at 10 µM of the first is higher: 19.3% for the first, 9% for the second.

Going from `Cc1[nH]nc2ccc(-c3cncc(OC[C@@H](N)Cc4ccccc4)c3)cc12` [PCM-0095333] to `Cn1cc(-c2ccc3nnc(Sc4ccc5ncccc5c4)n3n2)cn1` [PCM-0094898], the inhibition at 10 µM rises from -17.2% to -3.4%.

Compared with `COC(=O)c1cc(OC)c(O)c(OC)c1` [PCM-0215058], `COc1cc(Cc2cnc(N)nc2N)cc(OC)c1OC` [PCM-0065007] is higher in inhibition at 10 µM: -17.1% for the first, -7.8% for the second.

First: CC/C(=C(/c1ccc(/C=C/C(=O)O)cc1)c1ccc2[nH]ncc2c1)c1ccc(F)cc1Cl [PCM-0216010]
Second: C#CC[C@H](c1nc2cc(Cl)ccc2c(=O)n1Nc1ccccc1)N(CCCN)C(=O)c1cccc(Cl)c1F [PCM-0095802]
The inhibition at 10 µM of the first is higher: 81.1% for the first, 52.5% for the second.

Going from `CC1OC2OC3C(OCC(O)C3O)OC(=O)C34CCC(C)(C)CC3C3=CCC5C6(C)CC(O)C(OC7OC(CO)C(O)C(O)C7OC7OCC(OC(=O)CC(C)(O)CC(=O)OC1C(OC1OCC(O)C(O)C1O)C2O)C(O)C7O)C(C)(CO)C6CCC5(C)C3(C)CC4O` (centres unmarked) [PCM-0216328] to `CC(/C=C/C=C(\C)C(=O)O[C@@H]1O[C@H](CO[C@@H]2O[C@H](CO)[C@@H](O)[C@H](O)[C@H]2O)[C@@H](O)[C@H](O)[C@H]1O)=C\C=C\C=C(C)\C=C\C=C(/C)C(=O)O[C@@H]1O[C@H](CO[C@@H]2O[C@H](CO)[C@@H](O)[C@H](O)[C@H]2O)[C@@H](O)[C@H](O)[C@H]1O` [PCM-0214941], the inhibition at 10 µM falls from -1.5% to -8.6%.

Going from `COc1ccc(OC)c(C2C(C#N)=C(N)Oc3n[nH]c(-c4ccc5ccccc5c4)c32)c1` (centres unmarked) [PCM-0215398] to `C[C@@H](NCCCc1cccc(C(F)(F)F)c1)c1cccc2ccccc12` [PCM-0095032], the inhibition at 10 µM rises from 1.5% to 24.1%.

Going from `CN1C(C(=O)Nc2ccccn2)=C(O)c2sccc2S1(=O)=O` [PCM-0086073] to `O=C(Nc1ccc([N+](=O)[O-])cc1O)Nc1ccccc1Br` [PCM-0215392], the inhibition at 10 µM rises from -6.9% to 73.1%.

Going from `Nc1ncnc2c1ccn2[C@@H]1O[C@H]([C@H](O)c2ccccc2)[C@@H](O)[C@H]1O` [PCM-0215960] to `O=C(O)c1cccc(-c2noc(-c3ccccc3F)n2)c1` [PCM-0095566], the inhibition at 10 µM falls from 13.1% to -10%.

First: Cc1ccn[nH]1 [PCM-0215907]
Second: Oc1ncnc2[nH]ncc12 [PCM-0064482]
The inhibition at 10 µM of the first is higher: 4.6% for the first, -5.5% for the second.

Going from `O=P(O)(O)C(O)(Cc1cccnc1)P(=O)(O)O` [PCM-0090360] to `O=C(Nc1cc(Cl)cc2c1[nH]c1cnccc12)c1cccnc1` [PCM-0215579], the inhibition at 10 µM rises from -3.4% to 12.4%.

First: CC#C[C@]1(O)CC[C@H]2[C@@H]3CCC4=CC(=O)CCC4=C3[C@@H](c3ccc(N(C)C)cc3)C[C@@]21C [PCM-0064713]
Second: C[C@]12CC[C@@H]3c4ccc(OC(=O)c5ccccc5)cc4CC[C@H]3[C@@H]1CC[C@@H]2O [PCM-0095636]
The inhibition at 10 µM of the first is higher: 38.6% for the first, -7.8% for the second.

Going from `NC[C@H]1O[C@H](O[C@H]2[C@H](O)[C@@H](O[C@H]3O[C@H](CO)[C@@H](O)[C@H](N)[C@H]3O)[C@H](N)C[C@@H]2N)[C@H](N)C[C@@H]1O` [PCM-0086125] to `OC[C@H]1O[C@@](CO)(OC[C@@]2(OC[C@@]3(O[C@H]4O[C@H](CO)[C@@H](O)[C@H](O)[C@H]4O)O[C@H](CO)[C@@H](O)[C@@H]3O)O[C@H](CO)[C@@H](O)[C@@H]2O)[C@@H](O)[C@@H]1O` [PCM-0216359], the inhibition at 10 µM rises from -14.5% to 7.7%.

Going from `CS(=O)(=O)N1CCN(Cc2cc3nc(-c4cccc5[nH]ncc45)nc(N4CCOCC4)c3s2)CC1` [PCM-0094994] to `CN1CCN(c2cccc(Nc3nc4c(-c5ccc(S(C)(=O)=O)cc5)cccn4n3)c2)CC1` [PCM-0095404], the inhibition at 10 µM rises from -15.9% to 41.4%.

First: CC[C@H](C)[C@H](NC(=O)[C@H]([C@@H](C)CC)N(C)C(C)=O)C(=O)N[C@H](C(=O)N[C@@H](CC(C)C)C(=O)[C@@]1(C)CO1)[C@@H](C)O [PCM-0215680]
Second: CC(=O)NC(CC(C)C)C(=O)O (centres unmarked) [PCM-0214817]
The inhibition at 10 µM of the first is higher: 23.9% for the first, 1.6% for the second.

Going from `C=CCc1ccc(O)c(-c2cc(CC=C)ccc2O)c1` [PCM-0094865] to `O=C1N=C(O)CN1/N=C/c1ccc(-c2ccc([N+](=O)[O-])cc2)o1` [PCM-0086748], the inhibition at 10 µM rises from 16.3% to 28%.

Going from `CCOc1cc(C(C)(C)C)ccc1C1=N[C@@](C)(c2ccc(Cl)cc2)[C@@](C)(c2ccc(Cl)cc2)N1C(=O)N1CCN(CCCS(C)(=O)=O)CC1` [PCM-0215548] to `Cc1ccc(Cl)cc1N(CC(=O)Nc1c(F)cccc1F)S(C)(=O)=O` [PCM-0215291], the inhibition at 10 µM falls from 16.2% to 0.8%.

Compared with `CC(=O)O[C@@H]1C[C@@H]2CC[C@@]1(C)C2(C)C` [PCM-0215932], `COC(=O)[C@]12CCC(C)(C)C[C@H]1[C@H]1C(=O)C=C3[C@@]4(C)C=C(C#N)C(=O)C(C)(C)[C@@H]4CC[C@@]3(C)[C@]1(C)CC2` [PCM-0215239] is higher in inhibition at 10 µM: -21.4% for the first, 16.6% for the second.

Compared with `Cc1ccc(S(=O)(=O)c2ccc([N+](=O)[O-])o2)cc1` [PCM-0095771], `O=C(c1ccccc1O)c1[nH]c(Cl)c(Cl)c1-n1c(C(=O)c2ccccc2O)cc(Cl)c1Cl` [PCM-0215850] is higher in inhibition at 10 µM: -10.8% for the first, 117% for the second.

First: O=C(/C=C\n1cnc(-c2cc(C(F)(F)F)cc(C(F)(F)F)c2)n1)NNc1ccccn1 [PCM-0215397]
Second: CCn1cc(-c2cccc(C(F)(F)F)c2)c2sc(C(N)=NC3CCS(=O)(=O)CC3)cc2c1=O [PCM-0215627]
The inhibition at 10 µM of the first is lower: -19.3% for the first, 2.3% for the second.

Compared with `CC1(C)O[C@@H]2[C@@H](CO[C@@]3(COS(N)(=O)=O)OC(C)(C)O[C@@H]23)O1` [PCM-0086260], `CS(=O)(=O)OCCCCOS(C)(=O)=O` [PCM-0085767] is higher in inhibition at 10 µM: -15.6% for the first, -1.4% for the second.

Going from `O=C(O)[C@@H]1CCCN1` [PCM-0216221] to `CC(C)(C)c1cnc(CSc2cnc(NC(=O)C3CCNCC3)s2)o1` [PCM-0094965], the inhibition at 10 µM rises from -24.7% to -6.2%.

First: O=c1[nH]c(=O)n([C@H]2C[C@H](O)[C@@H](CO)O2)cc1C(F)(F)F [PCM-0086194]
Second: Clc1ccc(C(Cn2ccnc2)OCc2ccsc2Cl)c(Cl)c1 (centres unmarked) [PCM-0085844]
The inhibition at 10 µM of the first is higher: 2.3% for the first, -41.2% for the second.

`CC(C)=CCCC(C)CC=O` (centres unmarked) [PCM-0216209] showed an inhibition at 10 µM of 4.6%.

— publication PMC8041284, “Tunable Methacrylamides for Covalent Ligand Directed Release Chemistry” (Journal of the American Chemical Society, 2021)
